Source: the supplement of paper PMC10307832

Assays:
Experiment in all cases: relative viability (nuclei count vs DMSO), 5 days (fraction); higher = more cells survive
Shikonin + Phenformin = compound: CC(C)=CC[C@@H](O)C1=CC(=O)c2c(O)ccc(O)c2C1=O [Shikonin] + N=C(N)NC(=N)NCCc1ccccc1 [Phenformin] (partner 250 µM)
In short: (§1)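 Values are medians from duplicate plates. Each reflects relative viability, defined as the nuclei count of treated wells over that of vehicle wells. Lung cancer cell lines in 1536-well plates were pin-tool dosed one day after seeding with one drug alone or with a fixed anchor-drug dose plus five library-drug doses (not always all listed) in √10 steps, then fixed, stained and imaged at 4× after 5 days.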

[1] = compound: CC(C)N(CCCNC(=O)Nc1ccc(C(C)(C)C)cc1)C[C@H]1O[C@@H](n2ccc3c(N)ncnc32)[C@H](O)[C@@H]1O + CC(C)C[C@H](NC(=O)[C@H](Cc1ccccc1)NC(=O)c1cnccn1)B(O)O [Bortezomib] (partner 0.002 µM)
In short: as §1

Shikonin + Trametinib = compound: CC(C)=CC[C@@H](O)C1=CC(=O)c2c(O)ccc(O)c2C1=O [Shikonin] + CC(=O)Nc1cccc(-n2c(=O)n(C3CC3)c(=O)c3c(Nc4ccc(I)cc4F)n(C)c(=O)c(C)c32)c1 [Trametinib] (partner 0.02 µM)
In short: as §1

[2] = compound: CC(C)N(CCCNC(=O)Nc1ccc(C(C)(C)C)cc1)C[C@H]1O[C@@H](n2ccc3c(N)ncnc32)[C@H](O)[C@@H]1O + O=C(CCCCCCC(=O)Nc1ccccc1)NO [Vorinostat] (partner 1 µM)
In short: as §1

Cell Line | relative viability (Shikonin + Phenformin; first compound 0.01 µM) | relative viability (Shikonin + Phenformin; first compound 0.1 µM) | relative viability (Shikonin + Phenformin; first compound 0.3162 µM) | relative viability (Shikonin + Phenformin; first compound 1 µM) | relative viability ([1]; first compound 0.08 µM) | relative viability ([1]; first compound 0.253 µM) | relative viability ([1]; first compound 0.8 µM) | relative viability ([1]; first compound 2.53 µM) | relative viability ([1]; first compound 8 µM) | relative viability (Shikonin + Trametinib; first compound 0.01 µM) | relative viability (Shikonin + Trametinib; first compound 0.1 µM) | relative viability (Shikonin + Trametinib; first compound 0.3162 µM) | relative viability (Shikonin + Trametinib; first compound 1 µM) | relative viability ([2]; first compound 0.08 µM) | relative viability ([2]; first compound 0.253 µM) | relative viability ([2]; first compound 0.8 µM) | relative viability ([2]; first compound 2.53 µM) | relative viability ([2]; first compound 8 µM)
HCC-827 | 0.438 | 0.404 | 0.42 | 0.373 | 1.08 | 0.969 | 0.668 | 1.02 | 0.993 | 0.561 | 0.496 | 0.563 | 0.517 | 0.862 | 0.903 | 0.579 | 0.902 | 0.875
HOP-62 | 0.762 | 0.694 | 0.744 | 0.723 | 0.599 | 0.854 | 0.132 | 0.605 | 0.361 | 0.389 | 0.374 | 0.394 | 0.401 | 0.711 | 0.555 | 0.445 | 0.58 | 0.458
IA-LM |  |  |  |  | 0.81 | 0.693 | 0.752 | 0.689 | 0.712 |  |  |  |  | 0.88 | 0.761 | 0.909 | 0.968 | 0.96
LC-2-ad | 0.553 | 0.643 | 0.592 | 0.667 | 0.968 | 1.2 | 0.65 | 0.978 | 0.878 | 0.962 | 1.02 | 1.02 | 0.945 | 0.666 | 0.784 | 0.55 | 0.722 | 0.671
LCLC-97TM1 | 0.495 | 0.449 | 0.437 | 0.472 | 0.681 | 0.686 | 0.493 | 0.422 | 0.631 | 0.179 | 0.237 | 0.2 | 0.202 | 0.893 | 0.656 | 0.801 | 0.661 | 0.831
LCLC-103H | 0.372 | 0.335 | 0.341 | 0.34 | 1.09 | 1 | 0.686 | 1.04 | 1.02 | 0.662 | 0.683 | 0.663 | 0.698 | 0.717 | 0.692 | 0.585 | 0.701 | 0.748
LK-2 | 0.434 | 0.496 | 0.442 | 0.466 |  |  |  |  |  | 0.884 | 0.935 | 0.799 | 0.732 | 0.325 | 0.282 | 0.391 | 0.315 | 0.213
LOU-NH91 | 0.685 | 0.755 | 0.754 | 0.715 | 0.442 | 0.449 |  | 0.421 | 0.608 | 0.815 | 0.839 | 0.838 | 0.791 | 0.9 | 0.832 |  | 0.943 | 0.869
LU99A | 0.859 | 1.15 | 0.758 | 0.791 | 1.12 | 0.831 | 1.38 | 1.16 | 1.2 | 0.537 | 0.563 | 0.567 | 0.478 | 0.454 | 0.342 | 0.483 | 0.539 | 0.409
LXF-289 | 0.533 | 0.526 | 0.535 | 0.535 | 1 | 0.993 | 0.719 | 1.03 | 0.98 | 0.668 | 0.756 | 0.712 | 0.701 | 0.748 | 0.762 | 0.726 | 0.752 | 0.701
NCI-H358 | 0.289 | 0.387 | 0.329 | 0.37 |  |  |  |  |  | 0.124 | 0.124 | 0.121 | 0.126 | 0.725 | 0.629 | 0.721 | 0.714 | 0.613
NCI-H522 | 0.663 | 0.713 | 0.601 | 0.623 |  |  |  |  |  | 0.747 | 0.747 | 0.871 | 0.646 | 0.771 | 0.801 | 0.697 | 0.858 | 0.82
NCI-H1299 |  |  |  |  | 1.03 | 0.987 | 0.966 | 1.04 | 1.04 |  |  |  |  |  |  |  |  | 
NCI-H1395 | 0.42 | 0.484 | 0.419 | 0.459 |  |  |  |  |  | 0.994 | 1.18 | 1.09 | 0.923 | 0.727 | 0.58 | 0.427 | 0.638 | 0.786
NCI-H1563 | 0.662 | 0.723 | 0.643 | 0.673 | 0.844 | 0.811 | 0.626 | 0.873 | 0.902 |  |  |  |  |  |  |  |  | 
NCI-H1623 | 0.551 | 0.601 | 0.592 | 0.603 |  |  |  |  |  |  |  |  |  |  |  |  |  | 
NCI-H1648 |  |  |  |  |  |  |  |  |  | 0.422 |  | 0.464 | 0.503 | 0.466 | 0.4 | 0.407 | 0.481 | 0.64
NCI-H1703 |  |  |  |  | 0.244 | 0.316 | 0.273 | 0.381 | 0.307 |  |  |  |  |  |  |  |  | 
NCI-H1792 | 0.257 | 0.185 | 0.241 | 0.393 | 0.932 | 0.839 | 0.979 | 0.945 | 1.01 | 0.476 | 0.327 | 0.424 | 0.553 |  |  |  |  | 
NCI-H1793 | 0.424 | 0.417 | 0.41 | 0.404 |  |  |  |  |  | 0.393 | 0.414 | 0.392 | 0.417 | 0.617 |  | 0.761 | 0.773 | 0.574
NCI-H1944 | 0.198 | 0.189 | 0.209 | 0.205 |  |  |  |  |  | 0.382 | 0.431 | 0.415 | 0.469 | 0.508 | 0.48 | 0.484 | 0.637 | 0.546
NCI-H2170 | 0.399 | 0.445 | 0.449 | 0.431 |  |  |  |  |  | 0.937 | 0.97 | 0.959 | 0.981 | 0.811 | 0.681 | 0.807 | 0.83 | 0.688
NCI-H2342 | 0.679 | 0.538 | 0.653 | 0.587 |  |  |  |  |  | 0.902 | 0.686 | 0.88 | 0.843 | 0.708 | 0.744 | 0.669 | 0.778 | 0.775
SK-MES-1 | 0.747 | 0.677 | 0.72 | 0.638 |  |  |  |  |  | 0.595 | 0.57 | 0.575 | 0.71 | 1.04 | 1.13 | 0.867 | 1.1 | 1.06
SW 900 | 0.667 | 0.589 | 0.666 | 0.661 |  |  |  |  |  | 0.809 | 0.934 | 0.969 | 0.741 | 0.639 | 0.38 |  | 0.562 | 0.548
